Several values for one entry are separate records, joined by “and”; a condition that tells them apart may be missing. Equal values may be shown once.
Tested on: 874868-142-R-J2-PDC complex spheroids, growth % test/control
Experiment: Anticancer human tumor 874868-142-R-J2-PDC patient-derived head and neck squamous carcinoma cell line growth inhibition [CLK]
Settings: for viability, T/C: stronger effect = lower value
Source text: A high-throughput screen of multi-cell type tumor spheroids was designed to identify active combinations of […] and targeted small molecules. Complex spheroids include a stromal component modeled by human endothelial cells (HUVEC) and fibroblasts modeled by human mesenchymal stem cells (MSCs). The concentration ranges selected for each drug and investigational agent were based upon clinically achievable concentrations if the clinical Cmax of the agent was known.
Compounds. The drugs and investigational agents: cirtuvivint (SM08502; NSC835563), CC-671 (NSC850746), vemurafenib (NSC761431), tapotoclax (NSC804041), sotorasib (NSC818433), adagrasib (NSC831453), MRTX-1133 (NSC836407), BAY2416964 (NSC825713), copanlisib (NSC816437), inavolisib (NSC800729), abemaciclib (NSC768073), osimertinib (NSC779217), entinostat (NSC756642), eltanexor (KPT-8602, NSC794443), venetoclax (NSC766270), ceralasertib (NSC777638), bortezomib (NSC756655), olaparib (NSC753686), talazoparib (NSC767125), alisertib (NSC759677), peposertib (NSC802822), gemcitabine (NSC613327), 5-fluorouracil (NSC19893), SN-38 (NSC673596), oxaliplatin (NSC266046), paclitaxel (NSC125973), and doxorubicin (NSC123127), were obtained from the National Cancer Institute (NCI) Developmental Therapeutics Program Chemical Repository. The FDA-approved anticancer drug set is available from the Developmental Therapeutics Program at https://dtp.cancer.gov/organization/dscb/obtaining/available plates.htm. […] The stock solutions were prepared in dimethyl sulfoxide (DMSO, Sigma-Aldrich, St. Louis, MO, cat. D2650), except for the platinum complexes which were prepared in saline (Quality Biological, Gaithersburg, MD, cat. 114-055-101), at 800-fold the tested concentration and stored at -70 degrees C prior to their use. All drugs and investigational agents were tested over a range starting from a high concentration at or near the clinical Cmax and decreasing in half-log increments. If the clinical Cmax for an agent had not been determined, the highest concentration tested was 10 microM.
Cell Culture. All cells were maintained in an incubator at 37 degrees C and 5% CO2 with 95% humidity. The PDC lines were cultured according to standard operating procedures established by the NCI PDMR. Briefly, all PDCs were thawed and cultured in Matrigel-coated flasks prepared with a working solution of 1X Ham's F-12 nutrient mix, without supplementation (Invitrogen, Waltham, MA, cat. 11765054), 100 U/mL penicillin-streptomycin (Invitrogen, cat. 15140122), and 2.5% Matrigel (Corning Inc., Corning, NY, cat. 354248) for the first three passages. The 947758-054-R-J2-PDC line was cultured in 6B/Colon 1A media, which includes advanced DMEM/F-12 (Thermo Fisher Scientific, cat. 12634028), 10 mM HEPES (Thermo Fisher Scientific, cat. 15630080), 1X GlutaMAX supplement (Thermo Fisher Scientific, cat. 35050061), 0.1 mg/mL primocin (InvivoGen, cat. ant-pm-2), 10% defined fetal bovine serum, heat inactivated (HyClone Laboratories Inc., cat. SH30070.03HI), 1.25 mM N-Acetyl-L-cysteine (Sigma-Aldrich, cat. A9165), 10 mM nicotinamide (Sigma-Aldrich, cat. N0636), 1X B-27 supplement (Thermo Fisher Scientific, cat. 17504044), 1X N-2 supplement (Thermo Fisher Scientific, cat. 17502048), and 10 microM Y-27632 dihydrochloride (Tocris Bioscience, cat. 1254). The 876862-298-R-J1-PDC was cultured in 6E media, which includes all 6B/Colon 1A media components plus 50% L-WRN conditioned media (ATCC, cat. CRL-3276), 50 ng/mL recombinant human EGF recombinant protein (hEGF; Thermo Fisher Scientific, cat. PHG0311), 10 ng/mL recombinant human fibroblast growth factor 10 (hGFG-10; PeproTech, cat. 100-26), 1 ng/mL recombinant human fibroblast growth factor 2 (hFGF-2; PeproTech, cat. 100-18B), and 1 µM prostaglandin E2 (PGE2; Tocris, cat. 2296). The 227483-062-R1-J1-PDC line was cultured in Panc media, containing all 6E components except hFGF-2, with the addition of 500 nM SB-431542 (Selleckchem, cat. S1067) and 10 nM gastrin (Tocris, cat. 3006). […]
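Further: spheroids exposed to the compounds for 7 days.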

Question: Which results are given for `CNC(=O)c1ccc(Nc2nc(OC3CCCC3)c3c(-c4ccc5nc(C)oc5c4)c[nH]c3n2)c(OC)c1`?
Answer: viability, T/C (compound 0.1 µM): 89.6% [middle of 11 runs]; viability, T/C (compound 0.316 µM): 60.3% [middle of 11 runs]; viability, T/C (compound 1 µM): 50% [middle of 10 runs]; viability, T/C (compound 3.16 µM): 44.5% [middle of 11 runs]; viability, T/C (compound 10 µM): 42.6% [middle of 11 runs]

Question: Which results are given for `COc1ccc([C@@H](O)c2cc(-c3ncnc4cc(N5CCOCC5)ccc34)c(F)cc2Cl)nn1`?
Answer: viability, T/C (compound 0.0316 µM): 93.7% and 87.2%; viability, T/C (compound 0.1 µM): 92% and 97.7%; viability, T/C (compound 0.316 µM): 84.4% and 85%; viability, T/C (compound 1 µM): 67.6% and 79.7%; viability, T/C (compound 3.16 µM): 40.5% and 54.6%; viability, T/C (compound 10 µM): 24.7% and 26.3%; IC50 (curve of compound): 2120 nM and 3830 nM

Question: With `COc1cccc2c1C(=O)c1c(O)c3c(c(O)c1C2=O)CC(O)(C(=O)CO)CC3OC1CC(N)C(O)C(C)O1` (stereo unspecified) as the molecule, how does the viability, T/C (compound 0.0316 µM) read?
Answer: 74.8% and 74.3%

Question: What about the viability, T/C (compound 0.1 µM) of the same molecule?
Answer: 46.2% and 52.2%

Question: And the viability, T/C (compound 0.316 µM)?
Answer: 18.9% and 27.4%

Question: And the viability, T/C (compound 1 µM)?
Answer: 3.91% and 6.75%

Question: What about the viability, T/C (compound 3.16 µM) of the same molecule?
Answer: 0.09% and 0.19%

Question: What about the viability, T/C (compound 10 µM) of the same molecule?
Answer: 0.19% and 0.2%

Question: And the IC50 (curve of compound)?
Answer: 86.8 nM and 114 nM

Question: What does the source list for `C=CC(=O)N1CCN(c2nc(=O)n(-c3c(C)ccnc3C(C)C)c3nc(-c4c(O)cccc4F)c(F)cc23)C(C)C1` (stereo unspecified) + CN1CCN(c2cc(C(=O)Nc3cc4cc(-c5cnn(C)c5)ccc4cn3)ccn2)CC1?
Answer: IC50 (curve of first compound, second compound 0.0316 µM): > 10000 nM; IC50 (curve of first compound, second compound 0.1 µM): > 10000 nM; IC50 (curve of first compound, second compound 0.316 µM): < 31.6 nM; IC50 (curve of first compound, second compound 1 µM): < 31.6 nM; IC50 (curve of first compound, second compound 3.16 µM): < 31.6 nM; IC50 (curve of first compound, second compound 10 µM): < 31.6 nM; viability, T/C (second compound 0.0316 µM, first compound 0.0316 µM): 86.4%; viability, T/C (second compound 0.0316 µM, first compound 0.1 µM): 98.4%; viability, T/C (second compound 0.0316 µM, first compound 0.316 µM): 96.1%; viability, T/C (second compound 0.0316 µM, first compound 1 µM): 131%; viability, T/C (second compound 0.0316 µM, first compound 3.16 µM): 129%; viability, T/C (second compound 0.0316 µM, first compound 10 µM): 125%; viability, T/C (second compound 0.1 µM, first compound 0.0316 µM): 81%; viability, T/C (second compound 0.1 µM, first compound 0.1 µM): 73.3%; viability, T/C (second compound 0.1 µM, first compound 0.316 µM): 82.2%; viability, T/C (second compound 0.1 µM, first compound 1 µM): 86.3%; viability, T/C (second compound 0.1 µM, first compound 3.16 µM): 93.9%; viability, T/C (second compound 0.1 µM, first compound 10 µM): 109%; viability, T/C (second compound 0.316 µM, first compound 0.0316 µM): 16.9%; viability, T/C (second compound 0.316 µM, first compound 0.1 µM): 16.9%; viability, T/C (second compound 0.316 µM, first compound 0.316 µM): 21.9%; viability, T/C (second compound 0.316 µM, first compound 1 µM): 11.1%; viability, T/C (second compound 0.316 µM, first compound 3.16 µM): 17.8%; viability, T/C (second compound 0.316 µM, first compound 10 µM): 12.2%; viability, T/C (second compound 1 µM, first compound 0.0316 µM): 0.5%; viability, T/C (second compound 1 µM, first compound 0.1 µM): 0.38%; viability, T/C (second compound 1 µM, first compound 0.316 µM): 0.54%; viability, T/C (second compound 1 µM, first compound 1 µM): 2.26%; viability, T/C (second compound 1 µM, first compound 3.16 µM): 0.49%; viability, T/C (second compound 1 µM, first compound 10 µM): 0.41%; viability, T/C (second compound 3.16 µM, first compound 0.0316 µM): 0.17%; viability, T/C (second compound 3.16 µM, first compound 0.1 µM): 2.77%; viability, T/C (second compound 3.16 µM, first compound 0.316 µM): 1.11%; viability, T/C (second compound 3.16 µM, first compound 1 µM): 0.43%; viability, T/C (second compound 3.16 µM, first compound 3.16 µM): 0.45%; viability, T/C (second compound 3.16 µM, first compound 10 µM): 0.24%; viability, T/C (second compound 10 µM, first compound 0.0316 µM): 0.68%; viability, T/C (second compound 10 µM, first compound 0.1 µM): 0.21%; viability, T/C (second compound 10 µM, first compound 0.316 µM): 1.43%; viability, T/C (second compound 10 µM, first compound 1 µM): 0.18%; viability, T/C (second compound 10 µM, first compound 3.16 µM): 0.17%; viability, T/C (second compound 10 µM, first compound 10 µM): 3.04%

From PubChem BioAssay AID2060601 (Molecular Pharmacology Branch, DTP, NCI, 2025)
